Experiments:
B16/F10 melanoma = test: B16/F10 murine melanoma (iv./iv.) therapeutic model; assay type: in vivo, mice; conditions: iv. treatment, lung tumor nodules
Method: Female C57/BL6 mice (5/group) were inoculated iv. with 5×10^4 cells in 0.2 mL PBS (day 0). On days 10, 12, 14, 16, & 18 post-tumor inoculation, mice were treated iv. with the ether lipid to be tested, along with ELL-12 (L), D-EL, L-EL or Control (0.9% NaCl). Mice were sacrificed by carbon dioxide inhalation on day 22, lungs were excised, inflated and fixed with 10% Formalin. Lungs were counted “blind” for tumor nodules using a magnifier. The mean number of nodules per treatment group was determined.

COLO 205 = test: NCI growth inhibition screen, colon panel; assay type: cell-based, human; parameters: key: = means equivalent activity; + means that it appears to be significantly better (i.e., by ˜2x); < means it appears to be less active than ET18OCH3 (˜2x); a combination like =/+ or </+ means that activity is dependent upon the isomer; a combination like =/+ or </+ means that activity is dependent upon the isomer; conditions: COLO 205, Colon; from GI50s
Method: (§1) Candidates deemed suitable for in vivo testing were then synthesized in large scale quantities and some of this material was sent to the NCI's Developmental Therapeutics Program for a battery of growth inhibitory studies against various human tumor cell lines (60 cell lines, 9 different panels). The remainder of the material was used to assess in vivo efficacy using murine tumor models. Additionally, studies were conducted on the lead candidates to discern mechanism of action with particular emphasis on these agents apoptotic ability as measured by caspase 3 activity. The details (materials and methods) for these various assays are described further in the following discussion.
(§2) Ten compounds were also sent to NCI's Drug Discovery Program for screening against numerous human tumor cell lines (9 panels total: renal ovarian, colon, CNS, non-small cell lung, leukemia, breast, melanoma, and prostate). The data are shown in FIGS. 2a-i which also include data regarding D- and L-ET-18-OCH3 (listed as L-EL and D-EL in the figures). Upon examining the data, one is struck by how 1R and 1a′S standout in comparison to the other compounds, especially for the renal, ovarian, colon, and CNS panels.

HT29 = test: NCI growth inhibition screen, colon panel; assay type: cell-based, human; parameters: key: = means equivalent activity; + means that it appears to be significantly better (i.e., by ˜2x); < means it appears to be less active than ET18OCH3 (˜2x); a combination like =/+ or </+ means that activity is dependent upon the isomer; a combination like =/+ or </+ means that activity is dependent upon the isomer; conditions: from GI50s
Method: as §1, §2

KM12 = test: NCI growth inhibition screen, colon panel; assay type: cell-based, human; parameters: key: = means equivalent activity; + means that it appears to be significantly better (i.e., by ˜2x); < means it appears to be less active than ET18OCH3 (˜2x); a combination like =/+ or </+ means that activity is dependent upon the isomer; a combination like =/+ or </+ means that activity is dependent upon the isomer; conditions: from GI50s
Method: as §1, §2

SW-620 = test: NCI growth inhibition screen, colon panel; assay type: cell-based, human; parameters: key: = means equivalent activity; + means that it appears to be significantly better (i.e., by ˜2x); < means it appears to be less active than ET18OCH3 (˜2x); a combination like =/+ or </+ means that activity is dependent upon the isomer; a combination like =/+ or </+ means that activity is dependent upon the isomer; conditions: SW-620, Colon; from GI50s
Method: as §1, §2

OVCAR-4 = test: NCI growth inhibition screen, ovarian panel; assay type: cell-based, human; parameters: key to Performance as compared to ET-18-O—CH3: = means equivalent activity; + means that it appears to be significantly better (i.e., by ˜2x); < means it appears to be less active than ET18OCH3 (˜2x); a combination like =/+ or </+ means that activity is dependent upon the isomer; a combination like =/+ or </+ means that activity is dependent upon the isomer; conditions: for activity compared to both ET-18-OCH3 isomers (in words): OVCAR-4, NCI screen; for Performance as compared to ET-18-O—CH3: OVCAR-4, Ovarian, from GI50s
Method: as §1, §2

OVCAR-5 = test: NCI growth inhibition screen, ovarian panel; assay type: cell-based, human; parameters: key to Performance as compared to ET-18-O—CH3: = means equivalent activity; + means that it appears to be significantly better (i.e., by ˜2x); < means it appears to be less active than ET18OCH3 (˜2x); a combination like =/+ or </+ means that activity is dependent upon the isomer; a combination like =/+ or </+ means that activity is dependent upon the isomer; conditions: for activity compared to both ET-18-OCH3 isomers (in words): OVCAR-5, NCI screen; for Performance as compared to ET-18-O—CH3: OVCAR-5, Ovarian, from GI50s
Method: as §1, §2

SF-295 = test: NCI growth inhibition screen, CNS panel; assay type: cell-based, human; parameters: key: = means equivalent activity; + means that it appears to be significantly better (i.e., by ˜2x); < means it appears to be less active than ET18OCH3 (˜2x); a combination like =/+ or </+ means that activity is dependent upon the isomer; a combination like =/+ or </+ means that activity is dependent upon the isomer; conditions: SF-295, CNS; from GI50s
Method: as §1, §2

DU145 = test: NCI growth inhibition screen, prostate panel; assay type: cell-based, human; parameters: key: = means equivalent activity; + means that it appears to be significantly better (i.e., by ˜2x); < means it appears to be less active than ET18OCH3 (˜2x); a combination like =/+ or </+ means that activity is dependent upon the isomer; a combination like =/+ or </+ means that activity is dependent upon the isomer; conditions: from GI50s
Method: as §1, §2

PC-3 = test: NCI growth inhibition screen, prostate panel; assay type: cell-based, human; parameters: key: = means equivalent activity; + means that it appears to be significantly better (i.e., by ˜2x); < means it appears to be less active than ET18OCH3 (˜2x); a combination like =/+ or </+ means that activity is dependent upon the isomer; a combination like =/+ or </+ means that activity is dependent upon the isomer; conditions: PC-3, Prostate; from GI50s
Method: as §1, §2

NCI-H226 = test: NCI growth inhibition screen, non-small cell lung panel; assay type: cell-based, human; parameters: key to Performance as compared to ET-18-O—CH3: = means equivalent activity; + means that it appears to be significantly better (i.e., by ˜2x); < means it appears to be less active than ET18OCH3 (˜2x); a combination like =/+ or </+ means that activity is dependent upon the isomer; a combination like =/+ or </+ means that activity is dependent upon the isomer; conditions: for Performance as compared to ET-18-O—CH3: NCI-H226, NS cell lung, from GI50s; for activity compared to ET-18-OCH3 (in words): NCI-H226 cell line, NCI screen
Method: as §1, §2

CCCCCCCCCCCCCCCCCCOC[C@@H](COP(=O)([O-])OCC[N+](C)(C)C)OS(C)(=O)=O [1a′S]
activity against B16/F10 in mice (in words) (B16/F10 melanoma): exhibited activity | Performance as compared to ET-18-O—CH3 (COLO 205): 0 | Performance as compared to ET-18-O—CH3 (HT29): 0 | Performance as compared to ET-18-O—CH3 (KM12): 0 | Performance as compared to ET-18-O—CH3 (SW-620): 1024 | activity compared to both ET-18-OCH3 isomers (in words) (OVCAR-4): significantly better activity | Performance as compared to ET-18-O—CH3 (OVCAR-4): 2048 | activity compared to both ET-18-OCH3 isomers (in words) (OVCAR-5): significantly better activity | Performance as compared to ET-18-O—CH3 (OVCAR-5): 4096 | Performance as compared to ET-18-O—CH3 (SF-295): 0 | Performance as compared to ET-18-O—CH3 (DU145): 0 | Performance as compared to ET-18-O—CH3 (PC-3): 0 | Performance as compared to ET-18-O—CH3 (NCI-H226): 32 | activity compared to ET-18-OCH3 (in words) (NCI-H226): significantly better than ET-18-OCH3

CCCCCCCCCCCCCCCCCCOCC(COP(=O)([O-])OCC[N+](C)(C)C)OS(C)(=O)=O (stereo not shown) [Compound 1aR]
activity against B16/F10 in mice (in words) (B16/F10 melanoma): no activity | Performance as compared to ET-18-O—CH3 (COLO 205): = | Performance as compared to ET-18-O—CH3 (HT29): = | Performance as compared to ET-18-O—CH3 (KM12): = | Performance as compared to ET-18-O—CH3 (SW-620): + | activity compared to both ET-18-OCH3 isomers (in words) (OVCAR-4): significantly better activity | Performance as compared to ET-18-O—CH3 (OVCAR-4): + | activity compared to both ET-18-OCH3 isomers (in words) (OVCAR-5): significantly better activity | Performance as compared to ET-18-O—CH3 (OVCAR-5): + | Performance as compared to ET-18-O—CH3 (SF-295): = | Performance as compared to ET-18-O—CH3 (DU145): = | Performance as compared to ET-18-O—CH3 (PC-3): = | Performance as compared to ET-18-O—CH3 (NCI-H226): + | activity compared to ET-18-OCH3 (in words) (NCI-H226): significantly better than ET-18-OCH3
